Experimental data published in US12016862B2, “Methods and compositions comprising a KRasG12C inhibitor and a VEGF inhibitor for treating solid tumors” (Genentech, Inc., priority 2020, dated 2024).
Several values for one entry are separate records, joined by “and”; a condition that tells them apart may be missing. Equal entries are not always repeated. Where two headings read alike, the source gives them in different places.

Key:
[1] = bevacizumab; cited from earlier work
[2] = tested on: NCI-H2122 (KRAS^G12C) NSCLC xenograft; assay: Anti-tumor efficacy in NCI-H2122 NSCLC xenograft tumor model; assay type: in vivo, nude mice
Procedure: Anti-VEGFA 620.4.1.1 (Mu anti-VEGFA 620.4.1.1; hereafter referred to as anti-VEGF) was a solution in Histidine Buffer ([…], 0.02% Tween 20™, pH5.5). […] The anti-gD isotype control (Hu anti-gD 5B6; hereafter referred to as Isotype Control) was a solution in saline. […] The mice were housed in standard rodent micro-isolator cages and were acclimated to study conditions at least 3 days before tumor cell implantation. Only animals that appeared to be healthy and that were free of obvious abnormalities were used for the study. Human non-small lung carcinoma NCI-H2122 cells were obtained from the American Type Culture Collection (Rockville, MD) and harbor a G12C oncogenic mutation in K-RAS. […] Mice were distributed into four groups based on tumor volumes with n=10 mice per group. […] The isotope control and anti-VEGF antibodies were administered intravenously (IV) at 10 mg/kg for the first dose, and then dosed intraperitoneally (IP) at 5 mg/kg for subsequent doses on a twice weekly (BIW) schedule. Tumor sizes and mouse body weights were recorded twice weekly over the course of the study. […] Fred V. Fowler Co.; Newton, MA) and analyzed using Excel, version 14.2.5 (Microsoft Corporation; Redmond WA). […] A generalized additive mixed model (GAMM) was employed to analyze transformed tumor volumes over time as this approach addresses both repeated measurements from the same study subjects and modest dropouts before study end (Lin et al. Wiley Online Library; 1999; 61:381-400 and Liang Biometrical Journal. Wiley Online Library; 2005; 47:358-68). […] Estimates of efficacy were obtained by calculating the percent difference between the daily average baseline-corrected AUC of the relevant group fits on the original (i.e., untransformed) scale over a common time period.

[3] = tested on: KRAS^G12C-positive cancer cell lines; assay: Growth inhibition of KRAS^G12C-positive versus KRAS^G12C-negative cancer cell lines; assay type: cell-based
[4] = Risks associated with administration of study drugs; assay type: in vivo; conditions: Compound 1
From the text: Risks Associated with Compound 1.
Risks Associated with Bevacizumab.

[5] = number of mice of n=10, same dosing, 21 days

| Molecule | risks associated with administration [1] | % TGI (estimated) ([2]; NCI-H2122 xenografts in nude mice, n=10, Compound 1 50 mg/kg PO QD, anti-VEGF 10 mg/kg IV first dose then 5 mg/kg IP BIW, 21 days, based on AUC, relative to vehicle controls) [%] | mice showing reductions in initial tumor size ([2]; initial tumor response, n=10 per group) [%] | TI (tumor incidence) ([2]; n=10 per group, same dosing, 21 days) | CR (complete responses, 100% decrease in tumor volume) [2, 5] | PR (partial responses, >50% decrease from the initial tumor volume) [2, 5] | anti-tumor effect in words ([2]; single agent treatment) | mice showing increases in tumor volume ([2]; within the first week of treatment, of 10 mice) | selectivity in growth inhibition for KRAS^G12C-positive over KRAS^G12C-negative cancer cell lines [3] | risks associated with administration [4] |
| --- | --- | --- | --- | --- | --- | --- | --- | --- | --- | --- |
| Bevacizumab: recombinant humanized anti-VEGF monoclonal antibody generated according to Presta et al. | gastrointestinal perforations, surgery and wound healing complications, hemorrhage | – | – | – | – | – | – | – | – | – |
| C=CC(=O)N1CCN(c2nc(OC[C@@H]3CCCN3C)nc3c(F)c(-c4nc(N)cc(C)c4C(F)(F)F)c(Cl)cc23)[C@@H](C)C1 (atropisomer, axis not shown) [Compound 1] | – | 98 | 50 | 10/10 | 0 | 2/10 and 2 | tumor stasis | 5/10 | over 20,000 fold | diarrhea, nausea, vomiting, oral mucosal irritation, minimal to mild transaminase elevation, and phototoxicity |
